Patent publication US20110245334A1, “USE OF RACEMATES OF PINOCEMBRIN IN PREPARING MEDICAMENTS FOR TREATING STROKE” (CSPC Zhonggi Pharmaceutical Technology (Shijiazhuang) Co. …, priority 2008, published 2011)

What was measured:
MCAO rats [1] = assay: Neurobehavioral examination (Bederson's score), MCAO acute ischemic stroke; assay type: in vivo, rat
Protocol: Experimental animals: 100 male SD rats with a body weight of 250-280 g were purchased from the Experimental Animals Institute of the Chinese Academy of Medical Science. The rats were grouped randomly as a sham operation group, a model group, pinocembrin groups and a nimodipine group (3 mg/kg).
Experimental model: the model of acute ischemic stroke was made by middle cerebral artery occlusion (MCAO).
The string occlusion method in middle cerebral artery as established by Zea Longa was adopted with proper improvements. 400 mg/kg 10% chloral hydrate was intraperitoneally injected in rats. The external carotid artery (ECA) was separated and ligated at the site where the artery emitted for about 0.8 cm. The end of ECA closing to the heart was clipped by an artery clip. A 2 mm V-shaped incision was made from ECA ligation to ECA bifurcation. A nylon line was inserted gently into […] and then into internal carotid artery (ICA) through the bifurcation of ECA and ICA after loosening the artery clip. The nylon line was pushed into the brain through ICA and inserted in depth of 18.5±0.5 mm when resistance was felt slightly. The nylon line should reach smaller anterior cerebral artery through the beginning of middle cerebral artery (MCA) and ICA could be ligated and sutured. Stump of the nylon line should be reserved with 1 cm outside the skin.
Neurobehavioral examination was performed before the animals were put to death. The rats were raised off the ground for about 1 chi (1 chi=⅓ meter) to observe the state of two forelimbs. The rats were placed on the ground and were pushed by their shoulders to observe differences of their resistance. The rats were placed on the ground and were observed by the way of walking. Four-stage scoring method […] was adopted. The higher the score was, the more serious injury existed in their neurobehavior.
Bederson's scoring standard:
(1) If the rats acted completely normal, score 0 was recorded.
(2) When the rats were raised off the ground, if the rats rotated or retracted forelimb of surgery-contralateral side internally, score 1 was recorded.
(3) When the rats were placed on the ground and squeezed with the hand to examine the resistance of both sides, if the resistance of surgery-contralateral side declined, score 2 was recorded.
(4) When the rats were placed on the ground to observe the way of walking, if the rats circled around the surgery-contralateral side, score 3 was recorded.
(5) If the rats were injured too seriously to move by themselves, score 4 was recorded.

MCAO rats [2] = assay: Regional cerebral blood flow (LDF), MCAO; assay type: in vivo, rat
Source text: The rats were fixed pronely on the stereotaxic apparatus and subjected to craniotomy. After cleaning for operation visual field, bregma was used as an origin, and a site situated 2 mm behind and 3 mm right to the bregma was selected as a measuring point. The region […] around the site was thinned by a dental drill. In the process, the integrity of dura was maintained and large vessels were avoided. Probe holder was located and fixed.
The rats were supinely fixed on the operating table to carry out MCAO surgery. When a nylon line was inserted in ICA, it was not inserted into intracranial part until LDF value was stable, and blood flow value in 10 min was recorded, and an average value thereof is used as a baseline value of cerebral blood flow. After the MCAO surgery completed, the nylon line was inserted into the intracranial part. When the blood flow value suddenly declined to 20-30% of the baseline value, it was noted that the blood flow in MCA had been blocked. The blood flow value before MCAO in every group was used as a baseline value (100%) of the group. […] LDF value was determined at the same site before the animals was put to death.

## COCCOC(=O)C1=C(C)NC(C)=C(C(=O)OC(C)C)C1c1cccc([N+](=O)[O-])c1 (centres unmarked) [Nimodipine, reference compound]
MCAO rats [1]; 3 mg/kg
  Bederson's score: 2.5 ± 0.7
MCAO rats [2]; time point 10 min, 3 mg/kg
  regional cerebral blood flow (rCBF): 99.91 ± 7.27 % of baseline value
MCAO rats [2]; time point 20 min, 3 mg/kg
  regional cerebral blood flow (rCBF): 32.98 ± 8.09 % of baseline value
MCAO rats [2]; time point 30 min, 3 mg/kg
  regional cerebral blood flow (rCBF): 55.58 ± 6.09 % of baseline value
MCAO rats [2]; time point 30 min, 3 mg/kg, listed as nimodipine
  regional cerebral blood flow (rCBF): 55.58±6.09 % of baseline value
MCAO rats [2]; time point 40 min, 3 mg/kg
  regional cerebral blood flow (rCBF): 67.96 ± 7.81 % of baseline value
MCAO rats [2]; time point 50 min, 3 mg/kg
  regional cerebral blood flow (rCBF): 66.59 ± 9.08 % of baseline value
MCAO rats [2]; time point 60 min, 3 mg/kg
  regional cerebral blood flow (rCBF): 64.09 ± 8.03 % of baseline value
MCAO rats [2]; time point 70 min, 3 mg/kg
  regional cerebral blood flow (rCBF): 65.72 ± 8.58 % of baseline value
MCAO rats [2]; time point 80 min, 3 mg/kg
  regional cerebral blood flow (rCBF): 64.98 ± 6.25 % of baseline value
MCAO rats [2]; time point 90 min, 3 mg/kg
  regional cerebral blood flow (rCBF): 63.99 ± 6.09 % of baseline value
MCAO rats [2]; time point 100 min, 3 mg/kg
  regional cerebral blood flow (rCBF): 67.01 ± 5.67 % of baseline value
MCAO rats [2]; time point 110 min, 3 mg/kg
  regional cerebral blood flow (rCBF): 63.07 ± 6.1 % of baseline value
MCAO rats [2]; time point 120 min, 3 mg/kg
  regional cerebral blood flow (rCBF): 61.85 ± 7.14 % of baseline value
MCAO rats [2]; time point 130 min, 3 mg/kg
  regional cerebral blood flow (rCBF): 67.12 ± 8.09 % of baseline value
MCAO rats [2]; time point 140 min, 3 mg/kg
  regional cerebral blood flow (rCBF): 65.89 ± 6.81 % of baseline value
MCAO rats [2]; time point 150 min, 3 mg/kg
  regional cerebral blood flow (rCBF): 61.8 ± 8.08 % of baseline value
MCAO rats [2]; time point 160 min, 3 mg/kg
  regional cerebral blood flow (rCBF): 63.47 ± 9.03 % of baseline value
MCAO rats [2]; time point 170 min, 3 mg/kg
  regional cerebral blood flow (rCBF): 65.9 ± 7.58 % of baseline value
MCAO rats [2]; time point 180 min, 3 mg/kg
  regional cerebral blood flow (rCBF): 66.08 ± 6.89 % of baseline value

## O=C1CC(c2ccccc2)Oc2cc(O)cc(O)c21 (racemic) [Pinocembrin racemate, pinocembrin racemate]
MCAO rats [1]; 3 mg/kg
  Bederson's score: 2.4 ± 0.7
MCAO rats [1]; 10 mg/kg
  Bederson's score: 1.8 ± 0.6
MCAO rats [1]; 30 mg/kg
  Bederson's score: 1.5 ± 0.3
MCAO rats [2]; time point 10 min, 3 mg/kg
  regional cerebral blood flow (rCBF): 99.91 ± 7.27 % of baseline value
MCAO rats [2]; time point 10 min, 10 mg/kg
  regional cerebral blood flow (rCBF): 99.91 ± 7.27 % of baseline value
MCAO rats [2]; time point 10 min, 30 mg/kg
  regional cerebral blood flow (rCBF): 99.91 ± 7.27 % of baseline value
MCAO rats [2]; time point 20 min, 3 mg/kg
  regional cerebral blood flow (rCBF): 32.03 ± 6.09 % of baseline value
MCAO rats [2]; time point 20 min, 10 mg/kg
  regional cerebral blood flow (rCBF): 31.45 ± 5.6 % of baseline value
MCAO rats [2]; time point 20 min, 30 mg/kg
  regional cerebral blood flow (rCBF): 37.98 ± 6.87 % of baseline value
MCAO rats [2]; time point 30 min, 3 mg/kg
  regional cerebral blood flow (rCBF): 40.76±6.58 % of baseline value
MCAO rats [2]; time point 30 min, 10 mg/kg
  regional cerebral blood flow (rCBF): 50.09±7.09 % of baseline value
MCAO rats [2]; time point 30 min, 30 mg/kg
  regional cerebral blood flow (rCBF): 53.28±8.03 % of baseline value
MCAO rats [2]; time point 40 min, 3 mg/kg
  regional cerebral blood flow (rCBF): 41.59 ± 6.35 % of baseline value
MCAO rats [2]; time point 40 min, 10 mg/kg
  regional cerebral blood flow (rCBF): 47.72 ± 6.67 % of baseline value
MCAO rats [2]; time point 40 min, 30 mg/kg
  regional cerebral blood flow (rCBF): 54.92 ± 8.58 % of baseline value
MCAO rats [2]; time point 50 min, 3 mg/kg
  regional cerebral blood flow (rCBF): 42.81 ± 5.25 % of baseline value
MCAO rats [2]; time point 50 min, 10 mg/kg
  regional cerebral blood flow (rCBF): 49.98 ± 7.1 % of baseline value
MCAO rats [2]; time point 50 min, 30 mg/kg
  regional cerebral blood flow (rCBF): 55.01 ± 6.25 % of baseline value
MCAO rats [2]; time point 60 min, 3 mg/kg
  regional cerebral blood flow (rCBF): 40.8 ± 7.09 % of baseline value
MCAO rats [2]; time point 60 min, 10 mg/kg
  regional cerebral blood flow (rCBF): 48.99 ± 8.14 % of baseline value
MCAO rats [2]; time point 60 min, 30 mg/kg
  regional cerebral blood flow (rCBF): 57.95 ± 6.09 % of baseline value
MCAO rats [2]; time point 70 min, 3 mg/kg
  regional cerebral blood flow (rCBF): 41.69 ± 8.67 % of baseline value
MCAO rats [2]; time point 70 min, 10 mg/kg
  regional cerebral blood flow (rCBF): 47.01 ± 8.09 % of baseline value
MCAO rats [2]; time point 70 min, 30 mg/kg
  regional cerebral blood flow (rCBF): 53.75 ± 7.09 % of baseline value
MCAO rats [2]; time point 80 min, 3 mg/kg
  regional cerebral blood flow (rCBF): 40.75 ± 7.1 % of baseline value
MCAO rats [2]; time point 80 min, 10 mg/kg
  regional cerebral blood flow (rCBF): 46.07 ± 9.08 % of baseline value
MCAO rats [2]; time point 80 min, 30 mg/kg
  regional cerebral blood flow (rCBF): 54.99 ± 6.67 % of baseline value
MCAO rats [2]; time point 90 min, 3 mg/kg
  regional cerebral blood flow (rCBF): 40.99 ± 8.14 % of baseline value
MCAO rats [2]; time point 90 min, 10 mg/kg
  regional cerebral blood flow (rCBF): 51.85 ± 8.03 % of baseline value
MCAO rats [2]; time point 90 min, 30 mg/kg
  regional cerebral blood flow (rCBF): 55.16 ± 7.1 % of baseline value
MCAO rats [2]; time point 100 min, 3 mg/kg
  regional cerebral blood flow (rCBF): 41.16 ± 6.25 % of baseline value
MCAO rats [2]; time point 100 min, 10 mg/kg
  regional cerebral blood flow (rCBF): 47.12 ± 8.58 % of baseline value
MCAO rats [2]; time point 100 min, 30 mg/kg
  regional cerebral blood flow (rCBF): 56.59 ± 8.14 % of baseline value
MCAO rats [2]; time point 110 min, 3 mg/kg
  regional cerebral blood flow (rCBF): 46.59 ± 7.09 % of baseline value
MCAO rats [2]; time point 110 min, 10 mg/kg
  regional cerebral blood flow (rCBF): 46.89 ± 6.25 % of baseline value
MCAO rats [2]; time point 110 min, 30 mg/kg
  regional cerebral blood flow (rCBF): 57.8 ± 7.27 % of baseline value
MCAO rats [2]; time point 120 min, 3 mg/kg
  regional cerebral blood flow (rCBF): 45.8 ± 5.67 % of baseline value
MCAO rats [2]; time point 120 min, 10 mg/kg
  regional cerebral blood flow (rCBF): 51.8 ± 6.09 % of baseline value
MCAO rats [2]; time point 120 min, 30 mg/kg
  regional cerebral blood flow (rCBF): 64.09 ± 6.09 % of baseline value
MCAO rats [2]; time point 130 min, 3 mg/kg
  regional cerebral blood flow (rCBF): 46.99 ± 6.1 % of baseline value
MCAO rats [2]; time point 130 min, 10 mg/kg
  regional cerebral blood flow (rCBF): 56.59 ± 9.08 % of baseline value
MCAO rats [2]; time point 130 min, 30 mg/kg
  regional cerebral blood flow (rCBF): 61.72 ± 6.58 % of baseline value
MCAO rats [2]; time point 140 min, 3 mg/kg
  regional cerebral blood flow (rCBF): 48.01 ± 7.14 % of baseline value
MCAO rats [2]; time point 140 min, 10 mg/kg
  regional cerebral blood flow (rCBF): 57.8 ± 8.03 % of baseline value
MCAO rats [2]; time point 140 min, 30 mg/kg
  regional cerebral blood flow (rCBF): 64.98 ± 6.35 % of baseline value
MCAO rats [2]; time point 150 min, 3 mg/kg
  regional cerebral blood flow (rCBF): 44.07 ± 7.09 % of baseline value
MCAO rats [2]; time point 150 min, 10 mg/kg
  regional cerebral blood flow (rCBF): 56.99 ± 8.58 % of baseline value
MCAO rats [2]; time point 150 min, 30 mg/kg
  regional cerebral blood flow (rCBF): 63.99 ± 5.25 % of baseline value
MCAO rats [2]; time point 160 min, 3 mg/kg
  regional cerebral blood flow (rCBF): 47.85 ± 6.81 % of baseline value
MCAO rats [2]; time point 160 min, 10 mg/kg
  regional cerebral blood flow (rCBF): 58.01 ± 7.89 % of baseline value
MCAO rats [2]; time point 160 min, 30 mg/kg
  regional cerebral blood flow (rCBF): 57.01 ± 7.09 % of baseline value
MCAO rats [2]; time point 170 min, 3 mg/kg
  regional cerebral blood flow (rCBF): 49.12 ± 6.08 % of baseline value
MCAO rats [2]; time point 170 min, 10 mg/kg
  regional cerebral blood flow (rCBF): 54.07 ± 6.81 % of baseline value
MCAO rats [2]; time point 170 min, 30 mg/kg
  regional cerebral blood flow (rCBF): 65.58 ± 8.67 % of baseline value
MCAO rats [2]; time point 180 min, 3 mg/kg
  regional cerebral blood flow (rCBF): 49.89 ± 7.58 % of baseline value
MCAO rats [2]; time point 180 min, 10 mg/kg
  regional cerebral blood flow (rCBF): 55.9 ± 6.08 % of baseline value
MCAO rats [2]; time point 180 min, 30 mg/kg
  regional cerebral blood flow (rCBF): 62.96 ± 6.81 % of baseline value
